Measurements reported in patent US9675592B2, “Methods and compositions for bacteria infections” (priority 2013, dated 2017).
Like-named read-outs stand apart in the source and are kept apart here.

How the values were obtained:
[1] = target: cytoplasmic domain of VraS (VraS-C) (Staphylococcus aureus, UniProt Q99SZ7); experiment: biochemical; type: binding; settings: new run with His-tagged VraS; NB = No Binding; read-out: KD VraS
VraR = VraR (Staphylococcus aureus, UniProt Q7A4R9); experiment: biochemical; type: binding; settings: His-tagged VraR; NB = No Binding
[2] = target: PurC (unrelated protein, control) (Bacillus anthracis, UniProt Q81ZH5); type: binding; settings: read-out: KD PurC (control)
[3] = test system: test strain 923 pPvra-lux; experiment: Secondary screen / synergy confirmation of Top 40, relative growth with oxacillin; type: cell-based, Staphylococcus aureus; settings: Top 40 library, compound at maximum non-GI conc
Procedure: In the secondary screen each microtiter plate contained either cells in TSB alone (16 replicates), cells with oxacillin (2 μg/mL, 31 replicates), or cells with test compound and oxacillin (2 μg/mL, 49 wells). Each compound was assayed in four separate biological replicates.
Synergy Confirmation of “Top 40”. […]

[4] = test system: vraSR promoter (Pvra-lux reporter in strain 923); type: cell-based, Staphylococcus aureus; settings: for RL Ox avg: Top 40 library, with oxacillin, compound at maximum non-GI conc; for vraSR repressing synergist: overall class from syn and rep
Procedure: In the secondary screen each microtiter plate contained either cells in TSB alone (16 replicates), cells with oxacillin (2 μg/mL, 31 replicates), or cells with test compound and oxacillin (2 μg/mL, 49 wells). Each compound was assayed in four separate biological replicates. […]

[5] = test system: test strain (923 pPvra-lux); experiment: Growth inhibition by compound alone (maximum non-growth-inhibitory concentration); type: cell-based, Staphylococcus aureus; settings: compound alone; maximum concentration where it did NOT inhibit growth
multiple strains of MRSA = experiment: MICs (minimal inhibitory concentrations) vs multiple strains of MRSA; type: cell-based, Staphylococcus aureus
[6] = test system: test strain 923 pPvra-lux (USA300 MRSA); experiment: Primary screen, relative growth in presence of oxacillin; settings: compound 10 μM with oxacillin 2 μg/mL, absorbance 24 h, <0.50 = dead cells = hit
[7] = test system: vraSR promoter (Pvra-lux reporter in strain 923); experiment: Primary screen, relative luminescence (vraSR expression)
[8] = primary screen, compound 10 μM with oxacillin 2 μg/mL, <0.50 = vraSR repressed = hit
[9] = isolate 923, SCCmec IV, ST 8, compound at 4 mg/L
[10] = isolate 1176, SCCmec II, ST 231, compound at 4 mg/L
[11] = isolate 2169, SCCmec IV, ST 72, compound at 4 mg/L
[12] = isolate 8004-01, SCCmec III, ST 239, compound at 4 mg/L
[13] = isolate 8010-01, SCCmec IV, ST 8, compound at 4 mg/L
[14] = isolate 8227-01, SCCmec IV, ST 87, compound at 4 mg/L
[15] = isolate 11095, SCCmec II, ST 105, compound at 4 mg/L
[16] = isolate 13113, SCCmec II, ST 5, compound at 4 mg/L
[17] = isolate 13354, SCCmec IV, ST 5, compound at 4 mg/L
[18] = isolate 14315, SCCmec IV, ST 1, compound at 4 mg/L
[19] = isolate Q2461, SCCmec VT, ST 59, compound at 4 mg/L
[20] = isolate 923, SCCmec IV, ST 8, compound at 2 mg/L
[21] = isolate 1176, SCCmec II, ST 231, compound at 2 mg/L
[22] = isolate 2169, SCCmec IV, ST 72, compound at 2 mg/L
[23] = isolate 8004-01, SCCmec III, ST 239, compound at 2 mg/L
[24] = isolate 8010-01, SCCmec IV, ST 8, compound at 2 mg/L
[25] = isolate 8227-01, SCCmec IV, ST 87, compound at 2 mg/L
[26] = isolate 11095, SCCmec II, ST 105, compound at 2 mg/L
[27] = isolate 13113, SCCmec II, ST 5, compound at 2 mg/L
[28] = isolate 13354, SCCmec IV, ST 5, compound at 2 mg/L
[29] = isolate 14315, SCCmec IV, ST 1, compound at 2 mg/L
[30] = isolate Q2461, SCCmec VT, ST 59, compound at 2 mg/L

Chain of VraR (Q7A4R9 whole entry): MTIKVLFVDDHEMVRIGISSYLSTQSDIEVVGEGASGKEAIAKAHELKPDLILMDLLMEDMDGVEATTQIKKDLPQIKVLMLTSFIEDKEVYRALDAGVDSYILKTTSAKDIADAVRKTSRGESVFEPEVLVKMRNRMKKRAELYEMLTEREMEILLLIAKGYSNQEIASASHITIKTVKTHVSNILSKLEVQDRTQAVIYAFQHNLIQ
Chain of cytoplasmic domain of VraS (VraS-C) (Q99SZ7 70-347): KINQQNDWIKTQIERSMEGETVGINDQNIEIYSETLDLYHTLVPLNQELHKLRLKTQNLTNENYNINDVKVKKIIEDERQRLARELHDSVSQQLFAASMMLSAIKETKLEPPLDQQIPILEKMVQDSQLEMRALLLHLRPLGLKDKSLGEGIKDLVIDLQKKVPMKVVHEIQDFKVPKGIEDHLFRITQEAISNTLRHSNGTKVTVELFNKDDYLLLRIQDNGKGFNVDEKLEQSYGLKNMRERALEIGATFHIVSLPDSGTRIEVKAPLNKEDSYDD
Chain of PurC (unrelated protein, control) (Q81ZH5 whole entry, looked up): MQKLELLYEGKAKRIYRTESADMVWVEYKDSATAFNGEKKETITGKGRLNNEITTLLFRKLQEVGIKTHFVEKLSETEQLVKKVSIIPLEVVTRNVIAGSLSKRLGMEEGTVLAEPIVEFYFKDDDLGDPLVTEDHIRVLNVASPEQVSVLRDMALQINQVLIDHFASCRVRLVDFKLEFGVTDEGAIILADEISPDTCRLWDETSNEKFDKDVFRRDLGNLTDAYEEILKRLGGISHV

Cc1ccc(C)c(-c2nnc(NC(=O)c3ccccc3F)o2)c1 [F2518-0382]
Kd [1]: > 100 µM
Kd (VraR): > 100 µM
Kd [2]: > 100 µM

Oc1ccc(C2(c3cccc(Br)c3)CCCCC2)cc1 [F0020-1560]
RG Ox avg [3]: 0.68
RL Ox avg [4]: 0.17
vraSR repressing synergist [4]: 2. possible
maximum non-GI conc [5]: 40 µg/mL
Ox MIC in presence of compound (multiple strains of MRSA; isolate 923, SCCmec IV, ST 8, compound at 1 mg/L): 1 µg/mL
Ox MIC in presence of compound (multiple strains of MRSA; isolate 1176, SCCmec II, ST 231, compound at 1 mg/L): <0.5 µg/mL
Ox MIC in presence of compound (multiple strains of MRSA; isolate 2169, SCCmec IV, ST 72, compound at 1 mg/L): 1 µg/mL
Ox MIC in presence of compound (multiple strains of MRSA; isolate 8004-01, SCCmec III, ST 239, compound at 1 mg/L): <4 µg/mL
Ox MIC in presence of compound (multiple strains of MRSA; isolate 8010-01, SCCmec IV, ST 8, compound at 1 mg/L): 1 µg/mL
Ox MIC in presence of compound (multiple strains of MRSA; isolate 8227-01, SCCmec IV, ST 87, compound at 1 mg/L): 0.25 µg/mL
Ox MIC in presence of compound (multiple strains of MRSA; isolate 11095, SCCmec II, ST 105, compound at 1 mg/L): <2 µg/mL
Ox MIC in presence of compound (multiple strains of MRSA; isolate 13113, SCCmec II, ST 5, compound at 1 mg/L): <0.13 µg/mL
Ox MIC in presence of compound (multiple strains of MRSA; isolate 13354, SCCmec IV, ST 5, compound at 1 mg/L): <0.13 µg/mL
Ox MIC in presence of compound (multiple strains of MRSA; isolate 14315, SCCmec IV, ST 1, compound at 1 mg/L): <0.5 µg/mL
Ox MIC in presence of compound (multiple strains of MRSA; isolate Q2461, SCCmec VT, ST 59, compound at 1 mg/L): 4 µg/mL
RG avg (relative growth) [6]: 0.02
RL avg (relative luminescence) [7, 8]: −0.01

Cc1ccc(S(=O)(=O)Nc2ccccc2C(=O)Nc2nc3c(C)ccc(C)c3s2)cc1 [F1813-0712]
RG Ox avg [3]: 0.71
RL Ox avg [4]: 0.20
vraSR repressing synergist [4]: 2. possible
maximum non-GI conc [5]: 400 µg/mL
Ox MIC in presence of compound (multiple strains of MRSA; [9]): 4 µg/mL
Ox MIC in presence of compound (multiple strains of MRSA; [10]): 16 µg/mL
Ox MIC in presence of compound (multiple strains of MRSA; [11]): 8 µg/mL
Ox MIC in presence of compound (multiple strains of MRSA; [12]): 512 µg/mL
Ox MIC in presence of compound (multiple strains of MRSA; [13]): 16 µg/mL
Ox MIC in presence of compound (multiple strains of MRSA; [14]): 0.5 µg/mL
Ox MIC in presence of compound (multiple strains of MRSA; [15]): 256 µg/mL
Ox MIC in presence of compound (multiple strains of MRSA; [16]): 16 µg/mL
Ox MIC in presence of compound (multiple strains of MRSA; [17]): 8 µg/mL
Ox MIC in presence of compound (multiple strains of MRSA; [18]): 16 µg/mL
Ox MIC in presence of compound (multiple strains of MRSA; [19]): 16 µg/mL
RG avg (relative growth) [6]: −0.01
RL avg (relative luminescence) [7]: 0.00

Cc1cc2c(C(C)C)c(O)c(O)c(C=O)c2c(O)c1-c1c(C)cc2c(C(C)C)c(O)c(O)c(C=O)c2c1O [Gos, Gossypol, reference compound]
Kd [1]: > 100 µM
Kd (VraR): > 100 µM

CC(C)(C)c1csc(NC(=O)c2cccc(NS(=O)(=O)c3ccc(F)cc3)c2)n1 [F2619-0556]
RG Ox avg [3]: 0.01
RL Ox avg [4]: 0.28
vraSR repressing synergist [4]: 1. confirmed
maximum non-GI conc [5]: 400 µg/mL
Ox MIC in presence of compound (multiple strains of MRSA; [9]): <0.25 µg/mL
Ox MIC in presence of compound (multiple strains of MRSA; [10]): <0.5 µg/mL
Ox MIC in presence of compound (multiple strains of MRSA; [11]): <0.25 µg/mL
Ox MIC in presence of compound (multiple strains of MRSA; [12]): <4 µg/mL
Ox MIC in presence of compound (multiple strains of MRSA; [13]): <0.25 µg/mL
Ox MIC in presence of compound (multiple strains of MRSA; [14]): <0.06 µg/mL
Ox MIC in presence of compound (multiple strains of MRSA; [15]): 128 µg/mL
Ox MIC in presence of compound (multiple strains of MRSA; [16]): <0.13 µg/mL
Ox MIC in presence of compound (multiple strains of MRSA; [17]): <0.13 µg/mL
Ox MIC in presence of compound (multiple strains of MRSA; [18]): <0.5 µg/mL
Ox MIC in presence of compound (multiple strains of MRSA; [19]): 1 µg/mL
RG avg (relative growth) [6]: 0.25
RL avg (relative luminescence) [7, 8]: 0.52

O=C(Nc1ccc(Cl)c(Cl)c1)Nc1ccc2cn[nH]c2c1 [F5882-3050]
RG Ox avg [3]: 0.02
RL Ox avg [4]: 0.07
vraSR repressing synergist [4]: 1. confirmed
maximum non-GI conc [5]: 400 µg/mL
Ox MIC in presence of compound (multiple strains of MRSA; [20]): <0.25 µg/mL
Ox MIC in presence of compound (multiple strains of MRSA; [21]): <0.5 µg/mL
Ox MIC in presence of compound (multiple strains of MRSA; [22]): <0.25 µg/mL
Ox MIC in presence of compound (multiple strains of MRSA; [23]): 32 µg/mL
Ox MIC in presence of compound (multiple strains of MRSA; [24]): <0.25 µg/mL
Ox MIC in presence of compound (multiple strains of MRSA; [25]): <0.06 µg/mL
Ox MIC in presence of compound (multiple strains of MRSA; [26]): <2 µg/mL
Ox MIC in presence of compound (multiple strains of MRSA; [27]): <0.13 µg/mL
Ox MIC in presence of compound (multiple strains of MRSA; [28]): <0.13 µg/mL
Ox MIC in presence of compound (multiple strains of MRSA; [29]): <0.5 µg/mL
Ox MIC in presence of compound (multiple strains of MRSA; [30]): 0.5 µg/mL
RG avg (relative growth) [6]: 0.39
RL avg (relative luminescence) [7, 8]: 0.25

Fc1cccc(Nc2nc(Nc3ccc(F)c(Cl)c3)nc(N3CCOCC3)n2)c1 [F2703-0396]
RG Ox avg [3]: 0.01
RL Ox avg [4]: 0.34
vraSR repressing synergist [4]: 1. confirmed
maximum non-GI conc [5]: 400 µg/mL
Ox MIC in presence of compound (multiple strains of MRSA; [20]): <0.25 µg/mL
Ox MIC in presence of compound (multiple strains of MRSA; [21]): <0.5 µg/mL
Ox MIC in presence of compound (multiple strains of MRSA; [22]): <0.25 µg/mL
Ox MIC in presence of compound (multiple strains of MRSA; [23]): 64 µg/mL
Ox MIC in presence of compound (multiple strains of MRSA; [24]): <0.25 µg/mL
Ox MIC in presence of compound (multiple strains of MRSA; [25]): <0.06 µg/mL
Ox MIC in presence of compound (multiple strains of MRSA; [26]): <2 µg/mL
Ox MIC in presence of compound (multiple strains of MRSA; [27]): <0.13 µg/mL
Ox MIC in presence of compound (multiple strains of MRSA; [28]): <0.13 µg/mL
Ox MIC in presence of compound (multiple strains of MRSA; [29]): <0.5 µg/mL
Ox MIC in presence of compound (multiple strains of MRSA; [30]): <0.13 µg/mL
RG avg (relative growth) [6]: 0.06
RL avg (relative luminescence) [7, 8]: 0.19

O=C(Nc1cccc(C(F)(F)F)c1)N1CCN(c2ccc(Nc3cccnc3)nn2)CC1 [F5237-0056]
RG Ox avg [3]: 1.10
RL Ox avg [4]: 0.72
vraSR repressing synergist [4]: 3. no effect
maximum non-GI conc [5]: 40 µg/mL
RG avg (relative growth) [6]: 0.02
RL avg (relative luminescence) [7, 8]: −0.05

CC1CCN(C(C)CNC(=O)Nc2ccc(C(F)(F)F)cc2)CC1 (stereo not drawn) [F2438-0002]
RG Ox avg [3]: 0.95
RL Ox avg [4]: 0.62
vraSR repressing synergist [4]: 3. no effect
maximum non-GI conc [5]: 40 µg/mL
RG avg (relative growth) [6]: −0.02
RL avg (relative luminescence) [7, 8]: −0.18

Fc1ccc(-c2csc3ncnc(Sc4nnnn4-c4ccccc4)c23)cc1 [F1142-4245]
RG Ox avg [3]: 0.25
RL Ox avg [4]: 0.04
vraSR repressing synergist [4]: 1. confirmed
maximum non-GI conc [5]: 400 µg/mL
RG avg (relative growth) [6]: 0.03
RL avg (relative luminescence) [7, 8]: 0.36

CC1CC1c1ccc(CCC(=O)Nc2ccc(Cl)c(Cl)c2)o1 (stereo not drawn) [F1118-0378]
RG Ox avg [3]: 1.00
RL Ox avg [4]: 0.65
vraSR repressing synergist [4]: 3. no effect
maximum non-GI conc [5]: 40 µg/mL
RG avg (relative growth) [6]: 0.01
RL avg (relative luminescence) [7, 8]: 0.42
